Patent publication US20240182531A1, “KV1.3 Blockers” (priority 2021, published 2024)
Where a SMILES comes first, the peptide text is derived from it. Bridges are numbered along the chain shown (N, C = ends). [ ]: non-standard residue; d: D form. Nle = CCCC[C@H](N)C(=O)O

Key:
human Kv1.2 = biological target: T1, human Kv1.2 (Homo sapiens, UniProt P16389); experiment: cell-based; conditions: ratio of patch clamp IC50 values
T1 construct: expressed in transfected cells; host or cells: CHO

human Kv1.6 = biological target: T2, human Kv1.6 (Homo sapiens, UniProt P17658); experiment: cell-based; conditions: ratio of patch clamp IC50 values
T2 construct: expressed in transfected cells; host or cells: CHO
T2 sequence (P17658 whole entry): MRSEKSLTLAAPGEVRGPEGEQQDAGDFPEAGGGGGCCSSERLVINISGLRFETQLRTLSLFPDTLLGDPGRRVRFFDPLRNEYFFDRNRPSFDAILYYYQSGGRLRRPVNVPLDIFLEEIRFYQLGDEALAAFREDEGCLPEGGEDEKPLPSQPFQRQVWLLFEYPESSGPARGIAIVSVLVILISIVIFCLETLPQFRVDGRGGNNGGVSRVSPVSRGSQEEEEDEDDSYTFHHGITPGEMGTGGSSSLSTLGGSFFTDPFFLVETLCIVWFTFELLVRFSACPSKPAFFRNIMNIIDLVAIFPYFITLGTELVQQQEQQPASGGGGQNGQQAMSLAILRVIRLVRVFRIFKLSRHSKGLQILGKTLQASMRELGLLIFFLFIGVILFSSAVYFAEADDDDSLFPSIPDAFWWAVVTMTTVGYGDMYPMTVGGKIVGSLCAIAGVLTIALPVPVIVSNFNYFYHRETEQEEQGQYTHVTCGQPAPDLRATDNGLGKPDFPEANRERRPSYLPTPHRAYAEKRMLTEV

Rat whole blood = Rat whole blood (Rattus norvegicus, UniProt P15384); format: cell-based; conditions: IL-17A release, thapsigargin, 24 Hr, at least 2 replicates
Sequence of Rat whole blood (P15384 whole entry): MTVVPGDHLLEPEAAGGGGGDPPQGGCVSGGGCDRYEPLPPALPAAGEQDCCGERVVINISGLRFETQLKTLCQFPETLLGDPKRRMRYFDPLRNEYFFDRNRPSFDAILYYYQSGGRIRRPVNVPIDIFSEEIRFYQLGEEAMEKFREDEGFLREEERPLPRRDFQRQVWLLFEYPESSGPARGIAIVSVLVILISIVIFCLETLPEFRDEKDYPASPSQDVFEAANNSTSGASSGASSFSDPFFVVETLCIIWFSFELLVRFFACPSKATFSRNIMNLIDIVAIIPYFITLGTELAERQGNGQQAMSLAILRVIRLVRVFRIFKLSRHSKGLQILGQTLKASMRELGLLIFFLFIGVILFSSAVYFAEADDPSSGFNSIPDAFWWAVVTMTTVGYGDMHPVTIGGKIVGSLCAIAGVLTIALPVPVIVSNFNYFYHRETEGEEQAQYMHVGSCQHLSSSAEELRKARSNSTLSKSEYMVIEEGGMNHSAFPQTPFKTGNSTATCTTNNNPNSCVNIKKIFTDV

human Kv1.1 = biological target: T3, human Kv1.1 (Homo sapiens, UniProt Q09470); experiment: cell-based; conditions: ratio of patch clamp IC50 values
T3 construct: expressed in transfected cells; host or cells: CHO
T3 sequence (Q09470 whole entry): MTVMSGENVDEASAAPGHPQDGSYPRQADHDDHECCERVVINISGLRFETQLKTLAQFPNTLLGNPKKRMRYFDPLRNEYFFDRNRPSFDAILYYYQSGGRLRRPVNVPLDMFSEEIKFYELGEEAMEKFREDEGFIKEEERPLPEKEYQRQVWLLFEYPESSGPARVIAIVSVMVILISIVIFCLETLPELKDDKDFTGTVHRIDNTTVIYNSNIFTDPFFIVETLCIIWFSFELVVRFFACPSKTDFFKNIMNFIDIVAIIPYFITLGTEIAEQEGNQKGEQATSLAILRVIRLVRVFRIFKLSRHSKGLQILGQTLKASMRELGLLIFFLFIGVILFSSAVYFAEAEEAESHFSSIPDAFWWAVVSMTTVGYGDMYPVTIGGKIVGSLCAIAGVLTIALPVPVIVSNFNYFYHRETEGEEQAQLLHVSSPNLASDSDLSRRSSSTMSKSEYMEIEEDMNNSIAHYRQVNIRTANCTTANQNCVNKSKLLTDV

T1 sequence (P16389 whole entry): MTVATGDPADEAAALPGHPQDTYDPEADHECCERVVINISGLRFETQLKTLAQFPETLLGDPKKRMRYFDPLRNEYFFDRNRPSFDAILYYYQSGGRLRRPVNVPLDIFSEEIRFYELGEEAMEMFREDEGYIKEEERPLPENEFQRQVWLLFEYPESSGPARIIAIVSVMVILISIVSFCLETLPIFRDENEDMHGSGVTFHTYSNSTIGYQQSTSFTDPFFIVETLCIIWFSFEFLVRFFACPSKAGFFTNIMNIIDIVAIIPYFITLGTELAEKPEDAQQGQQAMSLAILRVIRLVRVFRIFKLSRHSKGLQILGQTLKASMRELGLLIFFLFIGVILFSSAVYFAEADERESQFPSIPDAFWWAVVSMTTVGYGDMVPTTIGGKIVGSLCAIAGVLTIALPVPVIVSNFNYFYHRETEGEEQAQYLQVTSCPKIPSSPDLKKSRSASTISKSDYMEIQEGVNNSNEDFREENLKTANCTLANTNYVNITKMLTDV

CCCC[C@@H]1NC(=O)[C@@H]2CSSC[C@H](NC(=O)[C@H](CCCNC(=N)N)NC(=O)[C@H](CCCC)NC(=O)[C@H](CC(=O)O)NC(=O)[C@H](CCCC)NC(=O)[C@@H](N)CC(N)=O)C(=O)N[C@@H](CO)C(=O)N[C@@H](C)C(=O)N[C@@H](CO)C(=O)N[C@@H](C(C)C)C(=O)N[C@@H](CCC(=O)O)C(=O)N[C@H]3CSSC[C@H](NC(=O)[C@H](CCCCN)NC(=O)[C@H](CCCCN)NC(=O)[C@H](CC(N)=O)NC1=O)C(=O)N[C@@H](CCCCN)C(=O)N[C@H](C(=O)N[C@@H](Cc1ccc(O)cc1)C(=O)N1CCC[C@H]1C(=O)N[C@@H](CCCNC(=N)N)C(N)=O)CSSC[C@H](NC(=O)[C@H](CCCCN)NC(=O)[C@H](CCC(N)=O)NC(=O)[C@H](CCCCN)NC3=O)C(=O)N[C@@H](CC(C)C)C(=O)N[C@@H](CCCCN)C(=O)N[C@@H](C)C(=O)N[C@@H]([C@@H](C)CC)C(=O)NCC(=O)N[C@@H](CO)C(=O)N1CCC[C@H]1C(=O)N[C@@H](Cc1ccccc1)C(=O)NCC(=O)N[C@@H](CCCCN)C(=O)N2 [compound 62] (H-N[Nle]D[Nle]RCSASVECKQKCLKAIGSPFGKC[Nle]NKKCKCYPR-NH2; disulfide 6-27, 12-32, 16-34)
Selectivity ratio Kv1.2/Kv1.3 (human Kv1.2): 1740 | Selectivity ratio Kv1.6/Kv1.3 (human Kv1.6): 9102 | IC50 (Rat whole blood): 0.44 nM | Selectivity ratio Kv1.1/Kv1.3 (human Kv1.1): >11600

CC[C@H](C)[C@@H]1NC(=O)[C@H](C)NC(=O)[C@H](CCCCN)NC(=O)[C@H](CC(C)C)NC(=O)[C@@H]2CSSC[C@@H](C(=O)N[C@@H](Cc3ccc(O)cc3)C(=O)N3CCC[C@H]3C(=O)N[C@@H](CCCNC(=N)N)C(N)=O)NC(=O)[C@H](CCCCN)NC(=O)[C@@H]3CSSC[C@H](NC(=O)[C@H](CCC(=O)O)NC(=O)[C@H](C(C)C)NC(=O)[C@H](CO)NC(=O)[C@H](C)NC(=O)[C@H](CO)NC(=O)[C@@H](NC(=O)[C@H](CCCNC(=N)N)NC(=O)[C@H](CCSC)NC(=O)[C@H](CC(=O)O)NC(=O)[C@H](CCSC)NC(=O)[C@@H](N)CC(N)=O)CSSC[C@H](NC(=O)[C@H](CCCCN)NC(=O)CNC(=O)[C@H](Cc4ccccc4)NC(=O)[C@H]([C@@H](C)CC)NC(=O)[C@H](CO)NC(=O)CNC1=O)C(=O)N[C@@H](CCSC)C(=O)N[C@@H](CC(N)=O)C(=O)N[C@@H](CCCCN)C(=O)N[C@@H](CCCCN)C(=O)N3)C(=O)N[C@@H](C)C(=O)N[C@@H](CCC(N)=O)C(=O)N[C@@H](CCCCN)C(=O)N2 [compound 34] (H-NMDMRCSASVECAQKCLKAIGSIFGKCMNKKCKCYPR-NH2; disulfide 6-27, 12-32, 16-34)
Selectivity ratio Kv1.2/Kv1.3 (human Kv1.2): 4897 | Selectivity ratio Kv1.6/Kv1.3 (human Kv1.6): >22000 | IC50 (Rat whole blood): 0.41 nM | Selectivity ratio Kv1.1/Kv1.3 (human Kv1.1): >22000

CCCC[C@@H]1NC(=O)[C@@H]2CSSC[C@H](NC(=O)[C@H](CCCNC(=N)N)NC(=O)[C@H](CCCC)NC(=O)[C@H](CC(=O)O)NC(=O)[C@@H](N)CCCC)C(=O)N[C@@H](CO)C(=O)N[C@@H](C)C(=O)N[C@@H](CO)C(=O)N[C@@H](C(C)C)C(=O)N[C@@H](CCC(=O)O)C(=O)N[C@H]3CSSC[C@H](NC(=O)[C@H](CCCCN)NC(=O)[C@H](CCCCN)NC(=O)[C@H](CC(N)=O)NC1=O)C(=O)N[C@@H](CCCCN)C(=O)N[C@H](C(=O)N[C@@H](Cc1ccc(O)cc1)C(=O)N1CCC[C@H]1C(=O)N[C@@H](CCCNC(=N)N)C(=O)O)CSSC[C@H](NC(=O)[C@H](CCCCN)NC(=O)[C@H](CCC(N)=O)NC(=O)[C@H](CCCCN)NC3=O)C(=O)N[C@@H](CC(C)C)C(=O)N[C@@H](CCCCN)C(=O)N[C@@H](C)C(=O)N[C@@H]([C@@H](C)CC)C(=O)NCC(=O)N[C@@H](CO)C(=O)N[C@@H]([C@@H](C)CC)C(=O)N[C@@H](Cc1ccccc1)C(=O)NCC(=O)N[C@@H](CCCCN)C(=O)N2 [compound 90] (H-[Nle]D[Nle]RCSASVECKQKCLKAIGSIFGKC[Nle]NKKCKCYPR-OH; disulfide 5-26, 11-31, 15-33)
Selectivity ratio Kv1.2/Kv1.3 (human Kv1.2): 11034 | Selectivity ratio Kv1.6/Kv1.3 (human Kv1.6): >17800 | IC50 (Rat whole blood): 0.55 nM | Selectivity ratio Kv1.1/Kv1.3 (human Kv1.1): >17800

CCCC[C@@H]1NC(=O)[C@@H]2CSSC[C@H](NC(=O)[C@H](CCCNC(=N)N)NC(=O)[C@H](CCCC)NC(=O)[C@H](CO)NC(=O)[C@H](CCCC)NC(=O)[C@@H](N)CC(N)=O)C(=O)N[C@@H](CO)C(=O)N[C@@H](C)C(=O)N[C@@H](CO)C(=O)N[C@@H](C(C)C)C(=O)N[C@@H](CCC(=O)O)C(=O)N[C@H]3CSSC[C@H](NC(=O)[C@H](CCCCN)NC(=O)[C@H](CCCCN)NC(=O)[C@H](CC(N)=O)NC1=O)C(=O)N[C@@H](CCCCN)C(=O)N[C@H](C(=O)N[C@@H](Cc1ccc(O)cc1)C(=O)N1CCC[C@H]1C(=O)N[C@@H](CCCNC(=N)N)C(N)=O)CSSC[C@H](NC(=O)[C@H](CCCCN)NC(=O)[C@H](CCC(N)=O)NC(=O)[C@H](CCCCN)NC3=O)C(=O)N[C@@H](CC(C)C)C(=O)N[C@@H](CCCCN)C(=O)N[C@@H](C)C(=O)N[C@@H]([C@@H](C)CC)C(=O)NCC(=O)N[C@@H](CO)C(=O)N[C@@H]([C@@H](C)CC)C(=O)N[C@@H](Cc1ccccc1)C(=O)NCC(=O)N[C@@H](CCCCN)C(=O)N2 [compound 50] (H-N[Nle]S[Nle]RCSASVECKQKCLKAIGSIFGKC[Nle]NKKCKCYPR-NH2; disulfide 6-27, 12-32, 16-34)
Selectivity ratio Kv1.2/Kv1.3 (human Kv1.2): 943 | Selectivity ratio Kv1.6/Kv1.3 (human Kv1.6): 4359 | IC50 (Rat whole blood): 0.79 nM | Selectivity ratio Kv1.1/Kv1.3 (human Kv1.1): >9400

CCCC[C@@H]1NC(=O)[C@@H]2CSSC[C@H](NC(=O)[C@H](CCCNC(=N)N)NC(=O)[C@H](CCCC)NC(=O)[C@H](CC(=O)O)NC(=O)[C@H](CCCC)NC(=O)[C@@H](N)CC(N)=O)C(=O)N[C@@H](CCCNC(=N)N)C(=O)N[C@@H](C)C(=O)N[C@@H](CO)C(=O)N[C@@H](C(C)C)C(=O)N[C@@H](CCC(=O)O)C(=O)N[C@H]3CSSC[C@H](NC(=O)[C@H](CCCCN)NC(=O)[C@H](CCCCN)NC(=O)[C@H](CC(N)=O)NC1=O)C(=O)N[C@@H](CCCCN)C(=O)N[C@H](C(=O)N[C@@H](Cc1ccc(O)cc1)C(=O)N1CCC[C@H]1C(=O)N[C@@H](CCCNC(=N)N)C(N)=O)CSSC[C@H](NC(=O)[C@H](CCCCN)NC(=O)[C@H](CCC(N)=O)NC(=O)[C@H](CCCCN)NC3=O)C(=O)N[C@@H](CC(C)C)C(=O)N[C@@H](CCCCN)C(=O)N[C@@H](C)C(=O)N[C@@H]([C@@H](C)CC)C(=O)NCC(=O)N[C@@H](CO)C(=O)N[C@@H]([C@@H](C)CC)C(=O)N[C@@H](Cc1ccccc1)C(=O)NCC(=O)N[C@@H](CCCCN)C(=O)N2 [compound 46] (H-N[Nle]D[Nle]RCRASVECKQKCLKAIGSIFGKC[Nle]NKKCKCYPR-NH2; disulfide 6-27, 12-32, 16-34)
Selectivity ratio Kv1.2/Kv1.3 (human Kv1.2): 674 | Selectivity ratio Kv1.6/Kv1.3 (human Kv1.6): 1954 | IC50 (Rat whole blood): 0.91 nM | Selectivity ratio Kv1.1/Kv1.3 (human Kv1.1): >18600
